From BindingDB's records for doi:10.1021/jm0606185 (Uppsala University, 2006)

target: Type-2 angiotensin II receptor (Sus scrofa); experiment: Displacement of [125I]Ang2 from AT2 receptor in pig uterus membrane

Ki	SMILES
4 nM	CCCCN(C)C(=O)NS(=O)(=O)c1sc(CC(C)C)cc1-c1ccc(Cn2ccnc2)cc1 [N-(N-butyl-methylaminocarbonyl)-3-(4-imidazol-1-ylmethylphenyl)-5-isobutylthiophene-2-sulfonamide]
31 nM	COCCOC(=O)NS(=O)(=O)c1sc(CC(C)C)cc1-c1ccc(Cn2ccnc2)cc1 [N-(methyloxy-ethyloxycarbonyl)-3-(4-imidazol-1-ylmethylphenyl)-5-iso-butylthiophene-2-sulfonamide]
5 nM	CCCCOC(=O)NS(=O)(=O)c1ccc(CCCC)cc1-c1ccc(Cn2ccnc2)cc1 [N-butyloxycarbonyl-2-(4-imidazol-1-ylmethylphenyl)-4-butylbenzenesulfonamide]
15 nM	CCCCOC(=O)NS(=O)(=O)c1ccc(OC(C)C)cc1-c1ccc(Cn2ccnc2)cc1 [N-butyloxycarbonyl-2-(4-imidazol-1-ylmethylphenyl)-4-iso-propoxybenzenesulfonamide]
5 nM	CCCCOC(=O)NS(=O)(=O)c1sc(CCCC)cc1-c1ccc(Cn2ccnc2)cc1 [N-butyloxycarbonyl-3-(4-imidazol-1-ylmethylphenyl)-5-butylthiophene-2-sulfonamide]
79 nM	CCCCS(=O)(=O)NC(=O)c1sc(CC(C)C)cc1-c1ccc(Cn2ccnc2)cc1 [N-butylsulfonyl-3-(4-imidazol-1-ylmethylphenyl)-5-iso-butylthiophene-2-carboxamide]
76 nM	CCCCS(=O)(=O)NS(=O)(=O)c1sc(CC(C)C)cc1-c1ccc(Cn2ccnc2)cc1 [N-butylsulfonyl-3-(4-imidazol-1-ylmethylphenyl)-5-iso-butylthiophene-2-sulfonamide]
2 nM	CCCCc1ccc(S(=O)(=O)NC(=O)OCC)c(-c2ccc(Cn3ccnc3)cc2)c1 [N-ethyloxycarbonyl-2-(4-imidazol-1-ylmethylphenyl)-4-butylbenzenesulfonamide]
75 nM	CC(C)Cc1cc(-c2ccc(Cn3ccnc3)cc2)c(S(=O)(=O)NC(=O)OC(C)C)s1 [N-iso-propyloxycarbonyl-3-(4-imidazol-1-ylmethylphenyl)-5-iso-butylthiophene-2-sulfonamide]
63 nM	CC(C)Cc1cc(-c2ccc(Cn3ccnc3)cc2)c(S(=O)(=O)NC(=O)OC(C)(C)C)s1 [N-tert-butyloxycarbonyl-3-(4-imidazol-1-ylmethylphenyl)-5-iso-butylthiophene-2-sulfonamide]
